Consider two molecules from patent US20090170827A1, “Acid Addition Salt of Dihydropyridine Derivative” (Daiichi Sankyo Company , Limited, priority 2005, published 2009).

SMILES strings stand for the structures.

The nature of series [1]: Thermal stability test. The format is physicochemical. The protocol:
The test compound was placed in a glass bottle and allowed to stand under the following conditions (1) and (2). After a certain period of time had elapsed, the residual rate of the active ingredient [compound (I)] in the test compound was measured by high performance liquid chromatography.
(1): Closed state, 60° C.;
(2): Non-closed state, 40° C., humidity 75%.
The measurement conditions in high performance liquid chromatography are as follows.
Column: L-column ODS [4.6 mm×250 mm, manufactured by Chemicals Evaluation and Research Institute, Japan]
Mobile layer: acetonitrile/22 mM potassium dihydrogenphosphate buffer/methanol=455/350/195 (V/V/V) (adjusted to pH 5.5 by phosphoric acid)
(§1) Column temperature: 40° C.
Detection wavelength: 220 nm
The residual rate (%) was calculated by the following formula.
The residual rate (%)=[1−(sum of peak area percentages of impurities and decomposed products)]×100

The nature of series [2]: Absorbability test in dog. The format is in vivo, dog (male beagle). The following applies: for Cmax / AUC(0-t): fasted male beagle, tetragastrin-treated, oral gelatin capsule 100 mg/body, plasma; for AUC(0-t): read-out: AUC0-24 h. Here is the method:
Tetragastrin (6 μg/kg) was intramuscularly injected to the posterior region of thigh of a fasted male beagle (body weight: about 10 kg, n=4) to make the intragastric pH acidic 30 minutes before, immediately before and 30 minutes after administration of the test compound. The test compound was encapsulated in gelatin capsules at a dose of 100 mg/body and orally administered. About 3 ml of blood was collected from the median antebrachial vein using a heparin-treated glass syringe 0.5, 1, 2, 3, 4, 6, 8 and 24 hours after the administration. The collected blood was centrifuged to obtain plasma which was cryopreserved at −20° C. until measurement of the concentration of the test compound. One hundred μl of thawed plasma was mixed with 100 μl of 50% methanol, 800 μl of purified water, 100 μl of 0.1 N aqueous hydrochloric acid and 100 μl of an internal standard solution [a solution of the d7-compound (I) in 50% methanol, 50 ng/ml]. The eluate obtained by solid phase extraction using OASIS HLB was evaporated to dryness and then dissolved in 400 μl of 75% methanol. The solution was analyzed by LC/MS/MS.
A calibration curve was prepared by the same operation as above using 100 μl of dog control plasma without drug administration and 100 μl of a calibration curve standard solution [a solution of the compound (I) in 50% methanol, 0.1-1000 ng/ml].
The LC/MS/MS analysis conditions are shown below.
System: API4000 LC/MS/MS System (manufactured by
Applied Biosystems/MDS SCIEX)
Ion source: TurboIonSpray
Turbo heater gas: Air, 650° C., 70 psi
Nebulizer gas: Air, 70 psi
Orifice voltage: Compound (I) 106 V • d7-Compound (I) 106 V
Ion spray voltage: 5500 V
Collision energy: Compound (I) 35 V • d7-Compound (I) 35 V
Measurement mode: Positive/MRM
Monitor ion: Compound (I) m/z 583->167 • d7-Compound (I) m/z 590->167
System: Agilent 1100 Series (manufactured by Agilent Technologies)
Column: Inertsil ODS-3 5 μm, 2.1 mm I.D.×150 mm (manufactured by GL Sciences)
Mobile phase: Methanol/water/difluoroacetic acid (700/300/0.75)
as §1
The area under the concentration in plasma-time curve (AUC0-24h) and the maximum concentration in plasma (Cmax) as pharmacokinetic parameters indicative of drug absorbability were calculated from the results obtained according to the aforementioned method using the compound of Example 1 and the compound (I) as test compounds.

The nature of series [3]: Elution test (JP paddle method, pH 1.2). Type of series: physicochemical. The following applies: for Elution rate: pH 1.2, 900 ml, paddle 250 rpm, 100 mg equivalent/capsule. Here is the method: A test was carried out using one gelatin capsule filled with the test compound (100 mg equivalent/capsule) and 900 ml of the disintegration test first solution (The Japanese Pharmacopoeia Fourteenth Edition, pH 1.2) as a test solution according to the elution test second method (The Japanese Pharmacopoeia Fourteenth Edition, paddle method) at 250 revolutions per minute. A sinker (The Japanese Pharmacopoeia Fourteenth Edition elution test method) was used for preventing flotation of the gelatin capsule. Five, 10, 15, 20, 30, 45, 60, 75, 90, 105 and 120 minutes after the start of the elution test, about 20 ml of the test solution was filtered through a filter having a pore size of 10 μm (manufactured by VARIAN, Full Flow Filters 10 μm) and directly fed into a flow cell (optical path length: 0.5 cm) in a circulating system. The absorbance was measured by a photodiode array spectrophotometer (HP 8452A). The absorbance of the compound (I) in each test solution at the time of collection of the test solution was compared with the absorbance of the following standard solution to measure the concentration of the compound (I) in the test solution.
The standard solution was prepared as follows. About 28 mg of the compound (I) was precisely weighed and added to a 500 ml volumetric flask. Five ml of ethanol (99.5%, special grade reagent) was added to the flask and the compound (I) was dissolved while providing ultrasonic stimulation as necessary. The disintegration test first solution was added to make the volume exactly 500 ml. The resulting solution was provided as the standard solution.
The elution test system is shown below.
Elution test device: DT-600 (manufactured by JASCO)
Ultraviolet visible spectrophotometer: HP 8452A Diodearray UV-Visible Spectrophotometer (manufactured by Hewlett Packard; now Agilent Technologies)
Cell positioner: HP 89075C Multicell Transport (manufactured by Hewlett Packard)
Delivery pump: HP 89092A Multichannel Pump (manufactured by Hewlett Packard)
Elution test software: Hewlett Packard Dissolution Testing Software, Revision 03.01 (manufactured by Hewlett Packard)
Analysis wavelength: 254 to 258 nm
Control wavelength: 322 to 326 nm
Optical path length of quartz cell: 0.5 cm

What is called Cmax is the peak of the concentration-time curve. `Br.Br.CC1=C(C(=O)OC(C)C)C(c2cccc([N+](=O)[O-])c2)C(C(=O)OC2CN(C(c3ccccc3)c3ccccc3)C2)=C(N)N1` (single isomer, unassigned) [Example 1, 2-Amino-1,4-dihydro-6-methyl-4-(3-nitrophenyl)-3,5-pyridinedicarboxylic acid 3-(1-diphenylmethylazetidin-3-yl)ester 5-isopropyl ester dihydrobromide]: the “Residual rate of Compound (I)” value in series [1] (Condition (1): closed state, 60° C., time 0 month) worked out at 99.9%; in series [1] (Condition (1): closed state, 60° C., time 1 month), 99.7%; in series [1] (Condition (1): closed state, 60° C., time 3 months), 99.7%; in series [1] (Condition (1): closed state, 60° C., time 6 months), 99.6%; in series [1] (Condition (2): non-closed state, 40° C., humidity 75%, time 0 month) it was 99.9%; in series [1] (Condition (2): non-closed state, 40° C., humidity 75%, time 1 month) it was 99.5%. Moreover, the “Residual rate of Compound (I)” value is 99.1% in series [1] (Condition (2): non-closed state, 40° C., humidity 75%, time 3 months) and 98.9% in series [1] (Condition (2): non-closed state, 40° C., humidity 75%, time 6 months). In addition, in series [1] (Condition (2): non-closed state, 40° C., humidity 75%), the “stability (in words)” value is “excellent stability”. Also, the Cmax in series [2] came out at 0.248 µg/mL. The AUC(0-t) in series [2] was 2.93 µg·h/mL. Further, the “bioavailability and concentration in blood (AUC0-24h and Cmax), in words” value in series [2] (oral, compared with free compound (I)) is “superior to those of the free compound (I)”. Besides, the Elution rate in series [3] (5 min) is listed as 1.0%; in series [3] (10 min), 1.9%; in series [3] (15 min), 3.3%; in series [3] (20 min), 5.0%; in series [3] (30 min), 9.9%; in series [3] (45 min), 23.5%. For the same molecule, the Elution rate in series [3] (60 min) worked out at 35.5%; in series [3] (75 min), 40.8%; in series [3] (90 min) it was 45.1%; in series [3] (105 min), 49.6%; in series [3] (120 min), 52.6%. For the same molecule, the “elution properties (in words)” value in series [3] (pH 1.2, compared with free compound (I)) was “superior to those of the free compound (I)”.

As for `CC1=C(C(=O)OC(C)C)C(c2cccc([N+](=O)[O-])c2)C(C(=O)OC2CN(C(c3ccccc3)c3ccccc3)C2)=C(N)N1` (stereo not shown) [Compound (I), 2-Amino-1,4-dihydro-6-methyl-4-(3-nitrophenyl)-3,5-pyridinedicarboxylic acid 3-(1-diphenylmethylazetidin-3-yl) ester 5-isopropyl ester, reference compound], the peak level in series [2] (Cmax) was 0.178 µg/mL. The AUC(0-t) in series [2] is 1.81 µg·h/mL. Also, the Elution rate was 0.5% in series [3] (5 min); 0.7% in series [3] (10 min); 1.0% in series [3] (15 min); 1.3% in series [3] (20 min); 1.8% in series [3] (30 min); 2.5% in series [3] (45 min). Further, the Elution rate in series [3] (60 min) was 3.1%; in series [3] (75 min), 3.6%; in series [3] (90 min), 4.1%; in series [3] (105 min) it was 4.5%; in series [3] (120 min), 5.0%.
